This is an account of results in patent US8951986B2, “Salts of HIV inhibitor compounds” (Gilead Sciences, Inc., priority 2008, dated 2015).

The subject of one test is HIV-1 BaL. Nature of the test: Anti-HIV-1 activity in activated PBMC, p24 ELISA. As to conditions: activated PBMC infected with HIV-1 BaL, 5 days, mean ± SD. It counts as cell-based. The procedure:
Activated PBMC were infected with HIV-1 BaL for 3 hours, washed, seeded into 96-well plates (250,000 cells/well) and incubated with serial dilutions of tested compounds for 5 days, at which point cell supernatants were collected and virus production was determined using commercial HIV-1 p24 ELISA (Beckman Coulter, Miami, Fla.).

The test system of another test is HIV-1 IIIB. Nature of the test: Anti-HIV-1 activity in MT-2 cells, virus-induced cytopathic effect (CellTiter-Glo). As to conditions: MT-2 cells infected with HIV-1 IIIB, 5-day incubation; mean ± SD. The format is cell-based. The procedure: MT-2 cells were maintained in RPMI-1640 medium supplemented with antibiotics and 10% fetal bovine serum (FBS). MT-2 cells were infected with HIV-1 IIIB at a multiplicity of infection (moi) of 0.01 and added to 96-well plates with serial dilutions of tested compounds at a density of 20,000 cells/well. […] Activity against NRTI-resistant mutants was determined in parallel with wild-type control virus and fold change in EC50 was calculated.

`Nc1ncnc2c1ncn2[C@@H]1O[C@H](OCP(=O)(O)O)C=C1F` [Parent Compound]: the figures for the EC50 in the test with HIV-1 BaL and in the test with HIV-1 IIIB were 8.5 ± 7.7 µM and 10.6 ± 2.4 µM, respectively.
